Patent US9096596B2 (Janssen Pharmaceutica NV, priority 2013, dated 2015)

What follows are molecules tested against P2X7 (Homo sapiens (Human), UniProt Q99572) (assay: P2X7 antagonism in human PBMCs (IL-1β release, ELISA)). Conditions: test compound 10 μM, IL-1β release in human PBMCs, LPS 30 ng/ml + Bz-ATP 0.5 mM, read-out: PBMC 10 μM (% control).
Assay type: cell-based
Protocol: Human blood was collected using a blood donor program. […] Cells were incubated for an additional 1.5 hours. […] In Table 2, when the data cell has been left blank, it is intended to mean that the compound was not tested in that assay.

Chain of P2X7 (Q99572 whole entry): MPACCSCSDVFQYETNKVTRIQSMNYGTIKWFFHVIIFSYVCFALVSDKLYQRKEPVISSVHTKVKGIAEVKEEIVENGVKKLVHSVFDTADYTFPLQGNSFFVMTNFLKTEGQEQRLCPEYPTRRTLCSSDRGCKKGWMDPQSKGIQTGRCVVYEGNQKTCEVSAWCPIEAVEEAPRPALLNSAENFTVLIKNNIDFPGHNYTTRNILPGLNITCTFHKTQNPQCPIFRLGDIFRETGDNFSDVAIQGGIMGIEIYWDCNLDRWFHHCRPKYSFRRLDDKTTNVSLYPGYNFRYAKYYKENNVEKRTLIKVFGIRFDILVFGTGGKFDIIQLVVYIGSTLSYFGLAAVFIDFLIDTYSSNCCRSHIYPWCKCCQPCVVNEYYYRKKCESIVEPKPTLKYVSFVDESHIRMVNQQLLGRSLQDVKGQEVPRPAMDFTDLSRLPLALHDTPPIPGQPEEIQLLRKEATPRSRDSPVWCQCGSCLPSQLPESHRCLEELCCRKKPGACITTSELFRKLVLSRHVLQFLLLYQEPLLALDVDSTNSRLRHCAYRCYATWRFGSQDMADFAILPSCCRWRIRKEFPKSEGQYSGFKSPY

SMILES | remaining activity at 10 µM [%]
Cc1nc2c(c(-c3ccn(CCF)n3)n1)C[C@H](C)N(C(=O)c1cccc(C(F)(F)F)c1Cl)C2 (single isomer, unassigned) [Example 125, (S*)-(2-chloro-3-(trifluoromethyl)phenyl)(4-(1-(2-fluoroethyl)-1H-pyrazol-3-yl)-2,6-dimethyl-5,6-dihydropyrido[3,4-d]pyrimidin-7(8H)-yl)methanone] | 64.7
Cc1cccc(C(=O)N2CCc3c(ncnc3-c3cnn(C)c3)C2)c1Cl [Example 6, 7-[(2-Chloro-3-methylphenyl)carbonyl]-4-(1-methyl-1H-pyrazol-4-yl)-5,6,7,8-tetrahydropyrido[3,4-d]pyrimidine] | 49.5
Cc1cccc(C(=O)N2CCc3c(ncnc3-c3ccn[nH]3)C2)c1C [Example 9, 7-[(2,3-Dimethylphenyl)carbonyl]-4-(1H-pyrazol-5-yl)-5,6,7,8-tetrahydropyrido[3,4-d]pyrimidine] | 9.8
Cc1cccc(C(=O)N2CCc3c(ncnc3-c3ccccn3)C2)c1Cl [Example 13, 7-[(2-Chloro-3-methylphenyl)carbonyl]-4-pyridin-2-yl-5,6,7,8-tetrahydropyrido[3,4-d]pyrimidine] | 13.4
O=C(c1cccc(C(F)(F)F)c1Cl)N1CCc2c(ncnc2-c2ccnn2C2CCCCO2)C1 (stereo not shown) [Example 17, 7-{[2-Chloro-3-(trifluoromethyl)phenyl]carbonyl}-4-[1-(tetrahydro-2H-pyran-2-yl)-1H-pyrazol-5-yl]-5,6,7,8-tetrahydropyrido[3,4-d]pyrimidine] | 9.9
CN(C)c1nc2c(c(-c3ccccc3)n1)CCN(C(=O)c1cccc(Cl)c1Cl)C2 [Example 25, 7-[(2,3-Dichlorophenyl)carbonyl]-N,N-dimethyl-4-phenyl-5,6,7,8-tetrahydropyrido[3,4-d]pyrimidin-2-amine] | 10.8
CN(C)c1nc2c(c(-c3ccccc3)n1)CCN(C(=O)c1cccc(C(F)(F)F)c1Cl)C2 [Example 26, 7-{[2-Chloro-3-(trifluoromethyl)phenyl]carbonyl}-N,N-dimethyl-4-phenyl-5,6,7,8-tetrahydropyrido[3,4-d]pyrimidin-2-amine] | 16.1
Cc1nc2c(c(-c3ccc(F)cc3)n1)CCN(C(=O)c1cccc(Cl)c1Cl)C2 [Example 28, 7-[(2,3-Dichlorophenyl)carbonyl]-4-(4-fluorophenyl)-2-methyl-5,6,7,8-tetrahydropyrido[3,4-d]pyrimidine] | 12.4
Cc1nc2c(c(-c3ccccn3)n1)CCN(C(=O)c1cccc(C(F)(F)F)c1Cl)C2 [Example 30, 7-{[2-Chloro-3-(trifluoromethyl)phenyl]carbonyl}-2-methyl-4-pyridin-2-yl-5,6,7,8-tetrahydropyrido[3,4-d]pyrimidine] | 21
Cc1nc2c(c(-c3ccccn3)n1)CCN(C(=O)c1cccc(Cl)c1Cl)C2 [Example 31, 7-[(2,3-Dichlorophenyl)carbonyl]-2-methyl-4-pyridin-2-yl-5,6,7,8-tetrahydropyrido[3,4-d]pyrimidine] | 9.2
Cc1nc2c(c(-c3[nH]ncc3C(F)(F)F)n1)CCN(C(=O)c1cccc(Cl)c1Cl)C2 [Example 40, 7-[(2,3-Dichlorophenyl)carbonyl]-2-methyl-4-[4-(trifluoromethyl)-1H-pyrazol-5-yl]-5,6,7,8-tetrahydropyrido[3,4-d]pyrimidine] | 12.9
Cc1nc2c(c(-c3ccc[nH]3)n1)CCN(C(=O)c1cccc(C(F)(F)F)c1Cl)C2 [Example 45, 7-{[2-Chloro-3-(trifluoromethyl)phenyl]carbonyl}-2-methyl-4-(1H-pyrrol-2-yl)-5,6,7,8-tetrahydropyrido[3,4-d]pyrimidine] | 7.1
Cc1nc2c(c(-c3c(C)noc3C)n1)CCN(C(=O)c1cccc(C(F)(F)F)c1Cl)C2 [Example 46, 7-{[2-Chloro-3-(trifluoromethyl)phenyl]carbonyl}-4-(3,5-dimethylisoxazol-4-yl)-2-methyl-5,6,7,8-tetrahydropyrido[3,4-d]pyrimidine] | 100
Cc1nc2c(c(-c3cnoc3)n1)CCN(C(=O)c1cccc(C(F)(F)F)c1Cl)C2 [Example 49, 7-{[2-Chloro-3-(trifluoromethyl)phenyl]carbonyl}-4-isoxazol-4-yl-2-methyl-5,6,7,8-tetrahydropyrido[3,4-d]pyrimidine] | 16.3
Cc1noc(C)c1-c1ncnc2c1CCN(C(=O)c1cccc(C(F)(F)F)c1Cl)C2 [Example 50, 7-{[2-Chloro-3-(trifluoromethyl)phenyl]carbonyl}-4-(3,5-dimethylisoxazol-4-yl)-5,6,7,8-tetrahydropyrido[3,4-d]pyrimidine] | 83.5
Cc1nc2c(c(-c3ccn[nH]3)n1)CCN(C(=O)c1cccc(C(F)(F)F)c1F)C2 [Example 51, 7-{[2-Fluoro-3-(trifluoromethyl)phenyl]carbonyl}-2-methyl-4-(1H-pyrazol-5-yl)-5,6,7,8-tetrahydropyrido[3,4-d]pyrimidine] | 17.3
Cc1nc2c(c(-c3ccn[nH]3)n1)CCN(C(=O)c1cccc(C(F)(F)F)c1C)C2 [Example 52, 2-Methyl-7-{[2-methyl-3-(trifluoromethyl)phenyl]carbonyl}-4-(1H-pyrazol-5-yl)-5,6,7,8-tetrahydropyrido[3,4-d]pyrimidine] | 9.3
Nc1nc2c(c(-c3ccn[nH]3)n1)CCN(C(=O)c1cccc(C(F)(F)F)c1Cl)C2 [Example 55, 7-{[2-Chloro-3-(trifluoromethyl)phenyl]carbonyl}-4-(1H-pyrazol-5-yl)-5,6,7,8-tetrahydropyrido[3,4-d]pyrimidin-2-amine] | -2.1
Cc1nc2c(c(-c3ccn[nH]3)n1)CC(C)N(C(=O)c1cccc(C(F)(F)F)c1Cl)C2 (stereo not shown) [Example 56, 7-{[2-Chloro-3-(trifluoromethyl)phenyl]carbonyl}-2,6-dimethyl-4-(1H-pyrazol-5-yl)-5,6,7,8-tetrahydropyrido[3,4-d]pyrimidine] | 10.2
Cc1nc2c(c(-c3ccn[nH]3)n1)CC(C)N(C(=O)c1ccc(F)c(C(F)(F)F)c1Cl)C2 (stereo not shown) [Example 64, (2-chloro-4-fluoro-3-(trifluoromethyl)phenyl)(2,6-dimethyl-4-(1H-pyrazol-5-yl)-5,6-dihydropyrido[3,4-d]pyrimidin-7(8H)-yl)methanone] | -2.1
Cc1nc2c(c(-c3ccn[nH]3)n1)CC(C)N(C(=O)c1ccc(Cl)c(F)c1Cl)C2 (stereo not shown) [Example 70, (2,4-dichloro-3-fluorophenyl)(2,6-dimethyl-4-(1H-pyrazol-5-yl)-5,6-dihydropyrido[3,4-d]pyrimidin-7(8H)-yl)methanone] | -2.7
Cc1nc2c(c(-c3ccn[nH]3)n1)CC(C)N(C(=O)c1cccc(C(F)(F)F)c1F)C2 (stereo not shown) [Example 74, (2,6-dimethyl-4-(1H-pyrazol-5-yl)-5,6-dihydropyrido[3,4-d]pyrimidin-7(8H)-yl)(2-fluoro-3-(trifluoromethyl)phenyl)methanone] | 22.5
Cc1nc2c(c(-c3ccn[nH]3)n1)CC(C)N(C(=O)c1ccc(F)c(Cl)c1Cl)C2 (stereo not shown) [Example 80, (2,3-dichloro-4-fluorophenyl)(2,6-dimethyl-4-(1H-pyrazol-5-yl)-5,6-dihydropyrido[3,4-d]pyrimidin-7(8H)-yl)methanone] | 18.4
Cc1nc2c(c(-c3ccn[nH]3)n1)CC(C)N(C(=O)c1ccc(Cl)cc1Cl)C2 (stereo not shown) [Example 83, (2,4-dichlorophenyl)(2,6-dimethyl-4-(1H-pyrazol-5-yl)-5,6-dihydropyrido[3,4-d]pyrimidin-7(8H)-yl)methanone] | 2.7
Cc1nc2c(c(-c3ccn[nH]3)n1)CC(C)N(C(=O)c1cc(Cl)ccc1Cl)C2 (stereo not shown) [Example 86, (2,5-dichlorophenyl)(2,6-dimethyl-4-(1H-pyrazol-5-yl)-5,6-dihydropyrido[3,4-d]pyrimidin-7(8H)-yl)methanone] | 92.2
CCc1nc2c(c(-c3ccn[nH]3)n1)CC(C)N(C(=O)c1cccc(C(F)(F)F)c1Cl)C2 (stereo not shown) [Example 98, (2-chloro-3-(trifluoromethyl)phenyl)(2-ethyl-6-methyl-4-(1H-pyrazol-5-yl)-5,6-dihydropyrido[3,4-d]pyrimidin-7(8H)-yl)methanone] | 13.2
CC(C)c1nc2c(c(-c3ccn[nH]3)n1)CC(C)N(C(=O)c1cccc(C(F)(F)F)c1Cl)C2 (stereo not shown) [Example 101, (2-chloro-3-(trifluoromethyl)phenyl)(2-isopropyl-6-methyl-4-(1H-pyrazol-5-yl)-5,6-dihydropyrido[3,4-d]pyrimidin-7(8H)-yl)methanone] | 13.6
CC1c2ncnc(-c3ccn[nH]3)c2CCN1C(=O)c1ccc(F)c(C(F)(F)F)c1Cl (stereo not shown) [Example 115, (2-chloro-4-fluoro-3-(trifluoromethyl)phenyl)(8-methyl-4-(1H-pyrazol-5-yl)-5,6-dihydropyrido[3,4-d]pyrimidin-7(8H)-yl)methanone] | -3.1
CC1c2ncnc(-c3ccn[nH]3)c2CCN1C(=O)c1ccc(Cl)c(F)c1Cl (stereo not shown) [Example 121] | 0.7

Each molecule was assayed against rat P2X7 (Rattus norvegicus (Rat), UniProt Q64663) (assay: Ca2+ flux (FLIPR) in 1321N1 cells expressing recombinant rat P2X7 channel). Conditions: 250 μM BzATP, Calcium-4 dye.
Assay type: cell-based
Protocol: 1321N1 cells expressing the recombinant human, rat or mouse P2X7 channel was cultured in HyQ DME/(HyClone/Dulbecco's Modified Eagle Medium) high glucose supplemented with 10% Fetal Bovine Serum (FBS) and appropriate selection marker. Cells were seeded at a density of 25000 cells/well (96-well clear bottom black walled plates) in 100 μl volume/well. On the day of the experiment, cell plates were washed with assay buffer, containing (in mM): 130 NaCl, 2 KCl, 1 CaCl2, 1 MgCl2, 10 HEPES, 5 glucose; pH 7.40 and 300 mOs. After the wash, cells were loaded with the Calcium-4 dye (Molecular Device) and incubated in the dark for 60 minutes. Test compounds were prepared at 250× the test concentration in neat DMSO. Intermediate 96-well compound plates were prepared by transferring 1.2 μL of the compound into 300 μL of assay buffer. A further 3× dilution occurred when transferring 50 μL/well of the compound plate to 100 μL/well in the cell plate. Cells were incubated with test compounds and dye for 30 minutes. […] The fluorescence change was measured 180 seconds after adding the agonist.

Chain of rat P2X7 (Q64663 whole entry): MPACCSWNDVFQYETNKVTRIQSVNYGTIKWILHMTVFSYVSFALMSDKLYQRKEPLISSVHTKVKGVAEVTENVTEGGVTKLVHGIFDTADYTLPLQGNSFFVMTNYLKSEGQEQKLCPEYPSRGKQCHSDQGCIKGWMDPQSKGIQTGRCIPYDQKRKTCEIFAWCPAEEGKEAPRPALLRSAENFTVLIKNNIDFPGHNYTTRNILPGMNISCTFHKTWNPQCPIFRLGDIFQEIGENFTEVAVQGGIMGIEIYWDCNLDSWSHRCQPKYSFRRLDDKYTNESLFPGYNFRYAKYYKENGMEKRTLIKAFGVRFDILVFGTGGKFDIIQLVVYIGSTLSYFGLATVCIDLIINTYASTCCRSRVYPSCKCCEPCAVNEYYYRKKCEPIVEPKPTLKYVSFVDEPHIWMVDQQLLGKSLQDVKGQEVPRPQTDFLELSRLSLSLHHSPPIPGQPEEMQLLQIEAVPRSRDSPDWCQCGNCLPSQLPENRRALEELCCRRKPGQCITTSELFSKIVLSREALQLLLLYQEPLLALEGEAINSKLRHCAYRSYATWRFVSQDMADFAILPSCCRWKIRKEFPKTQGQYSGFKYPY

SMILES | IC50 [µM]
Cc1nc2c(c(-c3ccc(F)cc3)n1)CCN(C(=O)c1cccc(Cl)c1Cl)C2 [Example 28, 7-[(2,3-Dichlorophenyl)carbonyl]-4-(4-fluorophenyl)-2-methyl-5,6,7,8-tetrahydropyrido[3,4-d]pyrimidine] | 8.57
Nc1nc2c(c(-c3ccn[nH]3)n1)CCN(C(=O)c1cccc(C(F)(F)F)c1Cl)C2 [Example 55, 7-{[2-Chloro-3-(trifluoromethyl)phenyl]carbonyl}-4-(1H-pyrazol-5-yl)-5,6,7,8-tetrahydropyrido[3,4-d]pyrimidin-2-amine] | 0.117
